Measurements from ChEMBL document CHEMBL1126745, “2,2-Dialkylnaphthalen-1-ones as new potassium channel activators” (J Med Chem, 1993).

Tests used:
[1] = test system: Rattus norvegicus; assay: Change in systolic blood pressure at intervals of 1 hr after oral administration of 1 mg/kg of compound in spontaneously hypertensive rats (in vivo); format: functional, Artery
[2] = species: Cavia porcellus; assay: In vitro inhibition of spontaneous tone of guinea pig tracheal spirals; format: functional; details: Trachea
[3] = species: Rattus norvegicus; assay: In vitro inhibition of noradrenaline-induced contractions in rat portal vein; format: functional
[4] = species: Rattus norvegicus; assay: Percentage of inhibition of noradrenaline-induced contractions in rat portal vein at 10 uM (in vitro); format: functional

Compound	Max fall in blood pressure [1]	IC50 [2]	IC50 [3]	inhibition at 10 µM [4]	Delta blood pressure [1]
CC1(C)C=C(N2Cc3ccccc3C2=O)c2cc(C#N)ccc2C1=O	34 mmHg	1.3 µM	0.6 µM		
CC1(C)C=C(N2CCCC2=O)c2cc(Br)ccc2C1=O		7.3 µM	10 µM		
CC1(C)C(=O)c2ccc(S(=O)(=O)c3ccccc3)cc2[C@@H](n2ccccc2=O)[C@@H]1O		0.7 µM	0.3 µM		
CC1(C)C(=O)c2ccc(C#N)cc2[C@@H](NC(=O)c2ccccn2)[C@@H]1O		> 10 µM	23 µM		
CC1(C)C(=O)c2ccc(C#N)cc2[C@@H](NC(=O)c2ccccc2)[C@@H]1O	31 mmHg	1.8 µM			
CC(=O)N[C@@H]1c2cc(C#N)ccc2C(=O)C(C)(C)[C@H]1O	28.6 mmHg	8.7 µM	45 µM		
CC1(C)C(=O)c2ccc(Br)cc2C(N2CCCC2=O)[C@@H]1O (stereo partly drawn)	39 mmHg	> 10 µM		40%	
CC1(C)C=C(n2ccccc2=O)c2ccc(Br)cc2C1=O	37 mmHg	4.7 µM	2.7 µM		
CC1(C)C=C(N2CCCCC2=O)c2cc(Br)ccc2C1=O	43.6 mmHg	3.5 µM	8 µM		
CC1(C)C(=O)c2ccc(Cl)cc2[C@@H](n2ccccc2=O)[C@@H]1O				0%	
CC1(C)C(=O)c2ccc(Br)cc2[C@@H](n2ccccc2=O)[C@@H]1O	31 mmHg	> 10 µM	28 µM		
CC1(C)C(=O)c2ccc(C#N)cc2[C@@H](Oc2ccccn2)[C@@H]1O	43 mmHg	5.5 µM	25 µM		
CC1(C)C=C(n2ccccc2=O)c2cc(S(=O)(=O)c3ccccc3)ccc2C1=O	32.6 mmHg	0.5 µM	0.1 µM		
CC1(C)C(=O)c2cc(Cl)c(Cl)cc2[C@@H](n2ccccc2=O)[C@@H]1O	52 mmHg	5 µM	1.5 µM		
CCC1(CC)CCc2cc(OC)ccc2C1=O	83 mmHg	> 10 µM	8 µM		
CC1(C)C(=O)c2ccc(Br)cc2[C@@H](N2CCS/C2=N\C#N)[C@@H]1O	30.5 mmHg			26%	
CC(=O)N(C)c1ccc2c(c1)C(n1ccccc1=O)=CC(C)(C)C2=O	74 mmHg	3.1 µM	4.3 µM		
CC1(C)C(=O)c2ccc(C(F)(F)F)cc2[C@@H](n2ccccc2=O)[C@@H]1O		1.4 µM			
COC(=O)c1ccc2c(c1)C(n1ccccc1=O)=CC(C)(C)C2=O	39 mmHg	8.5 µM	2.7 µM		
CC1(C)C=C(N2CCCC2=O)c2cc(Cl)ccc2C1=O	32.5 mmHg	> 10 µM		0%	
C=CCn1nc(O[C@@H]2c3cc(C#N)ccc3C(=O)C(C)(C)[C@H]2O)ccc1=O		3.9 µM	14 µM		
COc1ccc(C(=O)N[C@@H]2c3cc(C#N)ccc3C(=O)C(C)(C)[C@H]2O)cc1		12.2 µM	12 µM		
CO/N=C1\c2ccc(C#N)cc2C(n2ccccc2=O)=CC1(C)C	32.4 mmHg	> 10 µM	25 µM		
CC1(C)C=C(n2ccccc2=O)c2cc(C#N)ccc2/C1=N\O	28 mmHg	12.5 µM		27%	
CC(=O)N(C)c1ccc2c(c1)C(N1CCCC1=O)=CC(C)(C)C2=O	23 mmHg	2.5 µM	17 µM		
CC1(C)C(=O)c2ccc(Br)cc2[C@@H](N2Cc3ccccc3C2=O)[C@@H]1O	24 mmHg	> 10 µM	3.1 µM		
CC1(C)C=C(n2ccccc2=O)c2cc(Cl)c(Cl)cc2C1=O	58 mmHg	0.1 µM	0.7 µM		
CCC1(CC)C=C(n2ccccc2=O)c2cc(Br)ccc2C1=O	44 mmHg	8 µM	3.3 µM		

Compound	Max fall in blood pressure [1]	IC50 [2]	IC50 [3]	inhibition at 10 µM [4]	Delta blood pressure [1]
C=Cc1ccc2c(c1)C(n1ccccc1=O)=CC(C)(C)C2=O	30.6 mmHg	4.6 µM	1.5 µM		
CC1(C)C(=O)c2ccc(C#N)cc2C(N2CCCC2=O)[C@@H]1O (stereo partly drawn)	23 mmHg	> 10 µM		12%	
CC1(C)C(=O)c2ccc(C#N)cc2[C@@H](n2ccccc2=O)[C@@H]1OC=O	42 mmHg	4.3 µM			
CC(=O)O[C@H]1[C@H](n2ccccc2=O)c2cc(C#N)ccc2C(=O)C1(C)C		2 µM	23 µM		
COC1c2ccc(Br)cc2C(n2ccccc2=O)=CC1(C)C (stereo not drawn)	28 mmHg	17 µM		22%	
CC1(C)C=C(NC(=O)c2ccccn2)c2cc(C#N)ccc2C1=O	22.5 mmHg	3.1 µM	9 µM		
CC1(C)C=C(n2ccccc2=O)c2cc(Cl)ccc2C1=O	53.7 mmHg	1.1 µM	1.4 µM		
CC(=O)N(C)c1ccc2c(c1)[C@@H](n1ccccc1=O)[C@H](O)C(C)(C)C2=O	94 mmHg	> 10 µM	33 µM		
CC1(C)C(=O)c2ccc(C#N)cc2[C@@H](NC(=O)c2ccoc2)[C@@H]1O	58 mmHg			24%	
CC1(C)C=C(N2CCCC2=O)c2ccc(C#N)cc2C1=O	24.5 mmHg			0%	
CCC1(CC)C=C(n2ccccc2=O)c2cc(C#N)ccc2C1=O	35.6 mmHg	2.6 µM	7.8 µM		
CC1(C)C(=O)c2ccc(Br)cc2[C@@H](Oc2ccccn2)[C@@H]1O	33 mmHg			32%	
CCc1ccc2c(c1)C(n1ccccc1=O)=CC(C)(C)C2=O	58 mmHg	5.1 µM	5.5 µM		
CC1(C)C(=O)c2ccc(F)cc2[C@@H](n2ccccc2=O)[C@@H]1O	21.5 mmHg			0%	
COc1ccc2c(c1)C(n1ccccc1=O)=CC(C)(C)C2=O		3.1 µM	21 µM		
CC1(C)C=C(n2ccccc2=O)c2cc(F)ccc2C1=O	35 mmHg	3.9 µM	19 µM		
COC(=N)c1ccc2c(c1)C(n1ccccc1=O)=CC(C)(C)C2=O		3.1 µM	11 µM		27.5 mmHg
CC1(C)C(=O)c2ccc(C#N)cc2[C@@H](NC(=O)c2cccnc2)[C@@H]1O	50 mmHg	4.1 µM	2.8 µM		
CC1(C)C(=O)c2ccc(Br)cc2[C@@H](Oc2ccc(=O)[nH]n2)[C@@H]1O		4.4 µM	0.8 µM		
CC1(C)C=C(N2CCCC2=O)c2ccc(Br)cc2C1=O	54.5 mmHg	> 10 µM		11%	
Cn1nc(OC2=CC(C)(C)C(=O)c3ccc(C#N)cc32)ccc1=O				0%	24 mmHg
CC1(C)C=C(n2ccccc2=O)c2ccc(C#N)cc2C1=O	41 mmHg	> 10 µM		0%	
CC(=O)c1ccc2c(c1)C(n1ccccc1=O)=CC(C)(C)C2=O	56.5 mmHg	1 µM	3.3 µM		
CC1(C)C(=O)c2ccc(C#N)cc2[C@@H](N2Cc3ccccc3C2=O)[C@@H]1O	76 mmHg	1.1 µM	0.5 µM		
CC1(C)C(=O)c2ccc(C#N)cc2[C@@H](n2ccccc2=O)[C@@H]1O	84 mmHg	> 10 µM	14 µM		
CC1(C)C(=O)c2cc(Br)ccc2[C@@H](n2ccccc2=O)[C@@H]1O	29.3 mmHg		42 µM		
CC(=O)O[C@H]1[C@H](n2ccccc2=O)c2cc(Br)ccc2C(=O)C1(C)C	29 mmHg			38%	
